{"source": "patent US9975869B2", "about": "(Sphaera Pharma Pvt. Ltd., priority 2013, dated 2018)"}
{"tested_on": "AMPK", "test": "AMPK activation potential, cell based ELISA (Phospho-AMPKα Thr172) in Hep G2 cells", "settings": "10 nm concentration; Hep G2 liver cells; % activity with DMSO control as 100%; 30 min incubation for Epicatechin analogs", "experimental": "Testing of Compounds for Their AMPK Activation Potential\nAMPK activation potential of the compounds was evaluated using cell based ELISA. Hepatoma (Hep G2) liver cells were maintained in a T 75 culture flask-containing 25 mM DMEM+10% fetal calf serum. The cells were maintained in a T 75 culture flask-containing medium (DMEM+10% fetal calf serum). On reaching a confluence of 70 to 80%, the cells were seeded in a 96 well plate at a density of 40,000 cells per well in 25 mM DMEM+10% FCS medium. The plates were then incubated at 37° C. with 5% CO2 for 24 hours. Various concentrations of drugs were prepared in DMSO and diluted to required concentration with the medium and incubated at 37° C. with 5% CO2 for 30 min and 1 h for Epicatechin analogs and 11-BHP analogs respectively. Metformin was used as positive control. Cells were fixed with 4% formaldehyde for 30 minutes at room temperature and washed three times with PBS containing 0.1% Triton X-100. Endogenous peroxidase was quenched with 1% H2O2 in PBS-T (0.1% Tween 20) for 30 minutes and washed three times in PBS-T. Cells were blocked with 1% BSA in PBS-T for 1 hour. The cells were incubated with 1:1000 dilution primary antibody (Phospho-AMPKα (Thr172) Rabbit mAb, Cell Signaling in PBS-T containing 5% BSA at 4° C. overnight. The cells were then washed three times with PBS-T for 5 minutes and incubated with 1:1000 dilution secondary antibody (Anti-rabbit IgG, HRP-linked Antibody, Cell Signaling) in PBS-T with 1% BSA for 1 hour at RT. Cells were washed three times with PBS-T for 5 minutes The cells were incubated with 100 μl TMB substrate solution for 30 minutes and the reaction was stopped with 100 μl of 2N H2SO4. Then the plate was read at 450 nm using ELISA plate reader and absorbance recorded. % activity was calculated using DMSO control as 100%. All compounds of the present invention, as exemplified and encompassed are found to be active.", "units": {"% pAMPK(at 10 nm)": "%"}}
{"smiles": "Oc1cc(O)c2c(c1)O[C@H](c1ccccc1)[C@H](O)C2", "note": "(racemic) [Compound 1015, Cis (±) 2-phenylchroman-3,5,7-triol]", "% pAMPK(at 10 nm)": 119}
{"smiles": "COc1ccc2c(c1)O[C@H](c1cccc(O)c1)[C@H](O)C2", "note": "(racemic) [Compound 1018]", "% pAMPK(at 10 nm)": 100}
{"smiles": "O=C(NCc1ccccc1)Oc1ccc([C@H]2Oc3cc(O)cc(O)c3C[C@H]2O)cc1OC(=O)NCc1ccccc1", "note": "[Compound 1059, 4-((2R,3R)-3,5,7-trihydroxychroman-2-yl)-1,2-phenylene bis(benzylcarbamate)]", "% pAMPK(at 10 nm)": 144}
{"smiles": "O=C(O[C@@H]1Cc2c(O)cc(O)cc2O[C@@H]1c1ccc(O)c(O)c1)c1cccnc1", "note": "[Compound 1071, (2R,3R)-2-(3,4-dihydroxyphenyl)-5,7-dihydroxychroman-3-yl nicotinate]", "% pAMPK(at 10 nm)": 102}
{"smiles": "COc1ccc([C@H]2Oc3cc(OC)ccc3C[C@H]2O)cc1", "note": "[Compound 1070, (2R,3R)-7-methoxy-2-(4-methoxyphenyl)chroman-3-ol]", "% pAMPK(at 10 nm)": 126}
{"smiles": "CC(C)NC(=O)O[C@@H]1Cc2c(O)cc(O)cc2O[C@@H]1c1ccc(O)c(O)c1", "note": "[Compound 1046, (2R,3R)-2-(3,4-dihydroxyphenyl)-5,7-dihydroxychroman-3-yl isopropylcarbamate]", "% pAMPK(at 10 nm)": 101}
{"smiles": "Cc1cc([C@H]2Oc3cc(O)cc(O)c3C[C@H]2O)cc(O)c1O", "note": "(racemic) [Compound 1035, Cis (±) (2-(3,4-dihydroxy-5-methylphenyl)chromane-3,5,7-triol]", "% pAMPK(at 10 nm)": 102}
{"smiles": "CCCCCCCC(=O)Oc1cc(O)cc2c1C[C@@H](O)[C@@H](c1ccc(O)c(O)c1)O2", "note": "[Compound 1064, (2R,3R)-2-(3,4-dihydroxyphenyl)-3,7-dihydroxychroman-5-yl octanoate]", "% pAMPK(at 10 nm)": 110}
{"smiles": "Oc1cc(O)c2c(c1)O[C@H](c1ccc(O)c(F)c1)[C@H](O)C2", "note": "(racemic) [Compound 1034, Cis (±) 2-(3-fluoro-4-hydroxyphenyl)chromane-3,5,7-triol]", "% pAMPK(at 10 nm)": 107}
{"smiles": "Oc1cc(O)c2c(c1)O[C@H](c1cc(O)c(O)cc1F)[C@H](O)C2", "note": "(racemic) [Compound 1033, Cis (±) 2-(2-fluoro-4,5-dihydroxyphenyl)chromane-3,5,7-triol]", "% pAMPK(at 10 nm)": 107}
{"smiles": "CCOC(=O)O[C@@H]1Cc2c(O)cc(O)cc2O[C@@H]1c1ccc(O)c(O)c1", "note": "[Compound 1053, (2R,3R)-2-(3,4-dihydroxyphenyl)-5,7-dihydroxychroman-3-yl ethyl carbonate]", "% pAMPK(at 10 nm)": 94}
{"smiles": "COC(=O)Oc1cc(OC(=O)OC)c2c(c1)O[C@H](c1ccc(O)c(O)c1)[C@H](O)C2", "note": "[Compound 1058, (2R,3R)-2-(3,4-dihydroxyphenyl)-3-hydroxychromane-5,7-diyl dimethyl bis(carbonate)]", "% pAMPK(at 10 nm)": 117}
{"smiles": "Oc1cc(O)c2c(c1)O[C@H](c1ccc(O)c(O)c1F)[C@H](O)C2", "note": "(racemic) [Compound 1032, Cis (±) 2-(2-fluoro-3,4-dihydroxyphenyl)chroman-3,5,7-triol]", "% pAMPK(at 10 nm)": 104}
{"smiles": "CC(C)COC(=O)Oc1cc(OC(=O)OCC(C)C)c2c(c1)O[C@H](c1ccc(O)c(O)c1)[C@H](O)C2", "note": "[Compound 1050, (2R,3R)-2-(3,4-dihydroxyphenyl)-3-hydroxychromane-5,7-diyl diisobutyl bis(carbonate)]", "% pAMPK(at 10 nm)": 91}
{"smiles": "CCCO[C@@H]1Cc2ccc(O)cc2OC1c1cccc(O)c1", "note": "(stereo in doubt) [Compound 1030, 2-(3-hydroxyphenyl)-3-propoxychroman-7-ol]", "% pAMPK(at 10 nm)": 94}
{"smiles": "C[n+]1cccc(C(=O)O[C@@H]2Cc3c(O)cc(O)cc3O[C@@H]2c2ccc(O)c(O)c2)c1", "note": "[Compound 1041, 3-((((2R,3R)-2-(3,4-dihydroxyphenyl)-5,7-dihydroxychroman-3-yl)oxy)carbonyl)-1-methylpyridin-1-ium]", "% pAMPK(at 10 nm)": 88}
{"smiles": "O=C(OCc1ccccc1)Oc1cc(OC(=O)OCc2ccccc2)c2c(c1)O[C@H](c1ccc(OC(=O)OCc3ccccc3)c(OC(=O)OCc3ccccc3)c1)[C@H](O)C2", "note": "[Compound 1052, dibenzyl (4-((2R,3R)-5,7-bis(((benzyloxy)carbonyl)oxy)-3-hydroxychroman-2-yl)-1,2-phenylene) bis(carbonate)]", "% pAMPK(at 10 nm)": 103}
{"smiles": "Oc1ccc([C@H]2Oc3cc(O)ccc3C[C@H]2O)cc1", "note": "(racemic) [Compound 1004, Cis (±) 2-(4-hydroxyphenyl)chroman-3,7-diol]", "% pAMPK(at 10 nm)": 114}
{"smiles": "Oc1cccc([C@H]2Oc3cccc(O)c3C[C@H]2O)c1", "note": "(racemic) [Compound 1005, Cis (±) 2-(3-hydroxyphenyl)chroman-3,5-diol]", "% pAMPK(at 10 nm)": 102}
{"smiles": "CC(C)(C)COC(=O)Oc1cc([C@H]2Oc3cc(O)cc(O)c3C[C@H]2O)ccc1O", "note": "[Compound 1042, 2-hydroxy-5-((2R,3R)-3,5,7-trihydroxychroman-2-yl)phenyl neopentyl carbonate]", "% pAMPK(at 10 nm)": 95}
{"smiles": "Cc1ccc([C@H]2Oc3cc(O)ccc3C[C@H]2O)cc1O", "note": "[Compound 1069, (2R,3R)-2-(3-hydroxy-4-methylphenyl)chromane-3,7-diol]", "% pAMPK(at 10 nm)": 110}
{"smiles": "CC(C)NC(=O)Oc1ccc([C@H]2Oc3cc(O)cc(O)c3C[C@H]2O)cc1OC(=O)NC(C)C", "note": "[Compound 1044, 4-((2R,3R)-3,5,7-trihydroxychroman-2-yl)-1,2-phenylene bis(isopropylcarbamate)]", "% pAMPK(at 10 nm)": 96}
{"smiles": "COC(=O)Oc1cc(OC(=O)OC)c2c(c1)O[C@H](c1ccc(OC(=O)OCc3ccccc3)c(OC(=O)OCc3ccccc3)c1)[C@H](O)C2", "note": "[Compound 1066, dibenzyl (4-((2R,3R)-3-hydroxy-5,7-bis((methoxycarbonyl)oxy)chroman-2-yl)-1,2-phenylene) bis(carbonate)]", "% pAMPK(at 10 nm)": 139}
{"smiles": "Cc1ccc([C@H]2Oc3cc(O)ccc3C[C@H]2O)cc1O", "note": "(stereo in doubt) [Compound 1027, 2-(3-hydroxy-4-methylphenyl)chromane-3,7-diol]", "% pAMPK(at 10 nm)": 94}
{"smiles": "CN(C)C(=O)O[C@@H]1Cc2c(O)cc(O)cc2O[C@@H]1c1ccc(O)c(O)c1", "note": "[Compound 1047, (2R,3R)-2-(3,4-dihydroxyphenyl)-5,7-dihydroxychroman-3-yl dimethylcarbamate]", "% pAMPK(at 10 nm)": 100}
{"smiles": "COC(=O)Oc1ccc([C@H]2Oc3cc(O)cc(O)c3C[C@H]2O)cc1OC(=O)OC", "note": "[Compound 1049, dimethyl (4-((2R,3R)-3,5,7-trihydroxychroman-2-yl)-1,2-phenylene) bis(carbonate)]", "% pAMPK(at 10 nm)": 105}
{"smiles": "O=C(NCc1ccccc1)Oc1cc(OC(=O)NCc2ccccc2)c2c(c1)O[C@H](c1ccc(OC(=O)NCc3ccccc3)c(OC(=O)NCc3ccccc3)c1)[C@H](O)C2", "note": "[Compound 1051, 4-((2R,3R)-5,7-bis((benzylcarbamoyl)oxy)-3-hydroxychroman-2-yl)-1,2-phenylene bis(benzylcarbamate)]", "% pAMPK(at 10 nm)": 85}
{"smiles": "Oc1ccc([C@H]2Oc3cccc(O)c3C[C@H]2O)cc1", "note": "(racemic) [Compound 1006, Cis (±) 2-(4-hydroxyphenyl)chroman-3,5-diol]", "% pAMPK(at 10 nm)": 103}
{"smiles": "Cc1c([C@H]2Oc3cc(O)cc(O)c3C[C@H]2O)ccc(O)c1O", "note": "(racemic) [Compound 1031, Cis (±) 2-(3,4-dihydroxy-2-methylphenyl)chroman-3,5,7-triol]", "% pAMPK(at 10 nm)": 101}
{"smiles": "CC(C)OC(=O)O[C@@H]1Cc2c(O)cc(O)cc2O[C@@H]1c1ccc(O)c(O)c1", "note": "[Compound 1055, (2R,3R)-2-(3,4-dihydroxyphenyl)-5,7-dihydroxychroman-3-yl isopropyl carbonate]", "% pAMPK(at 10 nm)": 105}
{"smiles": "CC(C)(C)COC(=O)O[C@@H]1Cc2c(O)cc(O)cc2O[C@@H]1c1ccc(O)c(O)c1", "note": "[Compound 1045, (2R,3R)-2-(3,4-dihydroxyphenyl)-5,7-dihydroxychroman-3-yl neopentyl carbonate]", "% pAMPK(at 10 nm)": 105}
{"smiles": "Oc1ccc2c(c1)OC(c1ccc(F)c(O)c1)[C@H](O)C2", "note": "(stereo in doubt) [Compound 1029, 2-(4-fluoro-3-hydroxyphenyl)chromane-3,7-diol]", "% pAMPK(at 10 nm)": 93}
{"smiles": "COc1cc(C2Oc3cc(O)ccc3C[C@H]2O)ccc1F", "note": "(stereo in doubt) [Compound 1028, 2-(4-fluoro-3-methoxyphenyl)chromane-3,7-diol]", "% pAMPK(at 10 nm)": 101}
{"smiles": "O=C(OCc1ccccc1)Oc1ccc([C@H]2Oc3cc(O)cc(O)c3C[C@H]2O)cc1OC(=O)OCc1ccccc1", "note": "[Compound 1048, dibenzyl (4-((2R,3R)-3,5,7-trihydroxychroman-2-yl)-1,2-phenylene) bis(carbonate)]", "% pAMPK(at 10 nm)": 103}
{"smiles": "COc1cccc([C@H]2Oc3cc(OC)ccc3C[C@H]2O)c1", "note": "(racemic) [Compound 1019]", "% pAMPK(at 10 nm)": 101}
{"smiles": "Oc1ccc([C@H]2Oc3ccccc3C[C@H]2O)cc1O", "note": "(racemic) [Compound 1002, Cis (±) 3-hydroxychroman-2-yl)benzene-1,2-diol]", "% pAMPK(at 10 nm)": 108}
